#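 GI50: concentration for 50% inhibition of growth. The concentration for full growth arrest is given as TGI.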
# What was measured:
# Test in all cases: NCI tumour cell line growth inhibition, 384-well format
# [1] = test system: NCI-H226 lung
# [2] = test system: NCI-H23 lung
# [3] = test system: NCI-H322M lung
# [4] = test system: NCI-H460 NSCLC
# [5] = test system: NCI-H522 lung
# [6] = test system: NCI/ADR-RES ovarian
# [7] = test system: OVCAR-3 ovarian
# [8] = test system: OVCAR-4 ovarian
# [9] = test system: OVCAR-5 ovarian
# [10] = test system: OVCAR-8 ovarian
# [11] = test system: PC-3 prostate
# [12] = test system: RPMI-8226 leukemia
# [13] = test system: RXF 393 renal
# [14] = test system: SF-268 CNS
# [15] = test system: SF-295 CNS
# [16] = test system: SF-539 CNS
# [17] = test system: SK-MEL-28 melanoma
# [18] = test system: SK-MEL-5 melanoma
# [19] = test system: SK-OV-3 ovarian
# [20] = test system: SN12C renal
# [21] = test system: SNB-19 CNS
# [22] = test system: SNB-75 CNS
# [23] = test system: SW-620 colon
# [24] = test system: T-47D breast
# [25] = test system: TK-10 renal
# [26] = test system: U251 glioblastoma
# [27] = test system: UACC-257 melanoma
# [28] = test system: UACC-62 melanoma
# [29] = test system: UO-31 renal
smiles,measurement,setting,value
CN(C(=O)c1ccc(F)cc1C(F)(F)F)C1CCN(c2nnc(-c3ccnn3C)c3ccccc23)CC1,GI50,[1],32.1 µM
same,TGI,[1],> 100 µM
same,GI50,[2],30.1 µM
same,TGI,[2],> 100 µM
same,GI50,[3],28 µM
same,TGI,[3],> 100 µM
same,GI50,[4],35.7 µM
same,TGI,[4],> 100 µM
same,GI50,[5],35.5 µM
same,TGI,[5],> 100 µM
same,GI50,[6],33.3 µM
same,TGI,[6],> 100 µM
same,GI50,[7],85.6 µM
same,TGI,[7],> 100 µM
same,GI50,[8],67.4 µM
same,TGI,[8],> 100 µM
same,GI50,[9],> 100 µM
same,TGI,[9],> 100 µM
same,GI50,[10],34.7 µM
same,TGI,[10],> 100 µM
same,GI50,[11],44.5 µM
same,TGI,[11],> 100 µM
same,GI50,[12],22.5 µM
same,TGI,[12],> 100 µM
same,GI50,[13],20.9 µM
same,TGI,[13],74.4 µM
same,GI50,[14],13.9 µM
same,TGI,[14],71 µM
same,GI50,[15],> 100 µM
same,TGI,[15],> 100 µM
same,GI50,[16],> 100 µM
same,TGI,[16],> 100 µM
same,GI50,[17],> 100 µM
same,TGI,[17],> 100 µM
same,GI50,[18],8.15 µM
same,TGI,[18],21.2 µM
same,GI50,[19],89.2 µM
same,TGI,[19],> 100 µM
same,GI50,[20],> 100 µM
same,TGI,[20],> 100 µM
same,GI50,[21],89.5 µM
same,TGI,[21],> 100 µM
same,GI50,[22],58.5 µM
same,TGI,[22],> 100 µM
same,GI50,[23],> 100 µM
same,TGI,[23],> 100 µM
same,GI50,[24],2.73 µM
same,TGI,[24],12.5 µM
same,GI50,[25],> 100 µM
same,TGI,[25],> 100 µM
same,GI50,[26],54.3 µM
same,TGI,[26],> 100 µM
same,GI50,[27],32 µM
same,TGI,[27],> 100 µM
same,GI50,[28],> 100 µM
same,TGI,[28],> 100 µM
same,GI50,[29],58.7 µM
same,TGI,[29],> 100 µM
